Data on one compound can be found in patent publication US20130078351A1, “COMPOUNDS AND METHODS FOR ENHANCING SALTY TASTE” (Monell Chemical Senses Center, priority 2010, published 2013).

Assay [1] concerns human taste. Description: Psychophysical assessment of salty taste enhancing properties. Type of assay: in vivo. How it is done: 121 subjects participated in this study. They were familiar with the taste of the 5 modalities (sweet, bitter, umami, sour, and salty), and the use of a modality—specific task. Each subject was presented with 5 cups, each having 10 ml of fluid, plus a large amount of water as a rinse before and in between each sampling. Subjects were told to hold the sample in their mouth for several seconds before making a judgment. Subjects sampled and rated all five solutions, then repeated the study. Subjects rated intensity and modality. The samples tested were • 1. 50 mM NaCl • 2. 75 mM NaCl • 3. N-(2-hydroxyethyl)-4-methylpentanamide at 20 ppm • 4. 50mM NaCl plus 20 ppm N-(2-hydroxyethyl)-4-methylpentanamide • 5. 75 mM NaCl plus 20 ppm N-(2-hydroxyethyl)-4-methylpentanamide
The results of this study are depicted in FIG. 1. The X-axis of FIG. 1 provides the identity of the five solutions that were rated and the Y-axis provides the Geometric Mean saltiness intensity ratings. Error bars are Geometric Standard Errors. […] It was slightly bitter tasting with an average bitterness intensity of 3 (data not shown). N-(2-hydroxyethyl)-4-methylpentanamide enhanced the saltiness of 50 mM NaCl by more than 100% and the saltiness of 75 mM NaCl by approximately 35%. Consistency among subjects was high as indicated by the error bars.

The target of assay [2] is T1, Epithelial Sodium Channel (ENaC) subunits delta/beta/gamma (Homo sapiens, UniProt P51168+P51170+P51172).
T1 construct: expressed in transfected cells; host or cells: Xenopus laevis oocytes injected with cRNA
T1 sequence (P51172 1-802): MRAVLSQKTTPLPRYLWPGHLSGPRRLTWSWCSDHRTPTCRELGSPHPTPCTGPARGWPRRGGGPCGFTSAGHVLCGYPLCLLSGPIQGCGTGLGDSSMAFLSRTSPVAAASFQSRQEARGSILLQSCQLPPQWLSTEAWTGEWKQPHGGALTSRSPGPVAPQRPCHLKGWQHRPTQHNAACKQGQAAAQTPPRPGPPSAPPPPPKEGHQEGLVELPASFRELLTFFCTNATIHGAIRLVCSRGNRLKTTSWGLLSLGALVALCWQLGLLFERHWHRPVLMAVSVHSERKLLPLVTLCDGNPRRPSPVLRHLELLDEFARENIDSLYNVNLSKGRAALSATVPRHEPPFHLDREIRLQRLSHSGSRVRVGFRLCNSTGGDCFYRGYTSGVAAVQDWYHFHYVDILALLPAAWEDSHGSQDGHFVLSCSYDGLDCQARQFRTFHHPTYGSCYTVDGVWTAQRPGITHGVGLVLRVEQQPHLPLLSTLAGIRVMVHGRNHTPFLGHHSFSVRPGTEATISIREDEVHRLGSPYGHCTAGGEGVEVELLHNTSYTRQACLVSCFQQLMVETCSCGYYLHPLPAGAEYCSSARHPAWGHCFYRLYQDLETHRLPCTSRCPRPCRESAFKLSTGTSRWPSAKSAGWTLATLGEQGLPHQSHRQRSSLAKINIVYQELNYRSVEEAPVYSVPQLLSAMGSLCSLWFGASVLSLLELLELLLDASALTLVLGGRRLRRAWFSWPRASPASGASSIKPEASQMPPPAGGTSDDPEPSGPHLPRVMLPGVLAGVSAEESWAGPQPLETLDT
T1 sequence (P51168 1-640): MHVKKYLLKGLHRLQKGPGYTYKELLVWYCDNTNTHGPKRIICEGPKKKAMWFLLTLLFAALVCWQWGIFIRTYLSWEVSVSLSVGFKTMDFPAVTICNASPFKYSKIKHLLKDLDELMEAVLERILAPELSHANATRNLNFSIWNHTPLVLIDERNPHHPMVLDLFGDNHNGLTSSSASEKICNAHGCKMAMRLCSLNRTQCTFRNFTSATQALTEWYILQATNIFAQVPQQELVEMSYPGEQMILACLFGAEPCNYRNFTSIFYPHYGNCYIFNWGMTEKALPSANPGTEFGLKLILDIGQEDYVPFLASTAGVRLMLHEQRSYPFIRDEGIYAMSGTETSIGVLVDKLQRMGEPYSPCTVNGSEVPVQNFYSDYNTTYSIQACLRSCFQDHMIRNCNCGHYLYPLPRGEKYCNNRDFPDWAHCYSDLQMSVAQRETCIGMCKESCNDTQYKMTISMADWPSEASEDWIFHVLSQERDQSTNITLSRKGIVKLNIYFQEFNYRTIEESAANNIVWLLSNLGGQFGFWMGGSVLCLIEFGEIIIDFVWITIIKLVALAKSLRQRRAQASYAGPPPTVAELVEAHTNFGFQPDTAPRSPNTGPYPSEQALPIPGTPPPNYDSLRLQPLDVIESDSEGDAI
T1 sequence (P51170 1-649): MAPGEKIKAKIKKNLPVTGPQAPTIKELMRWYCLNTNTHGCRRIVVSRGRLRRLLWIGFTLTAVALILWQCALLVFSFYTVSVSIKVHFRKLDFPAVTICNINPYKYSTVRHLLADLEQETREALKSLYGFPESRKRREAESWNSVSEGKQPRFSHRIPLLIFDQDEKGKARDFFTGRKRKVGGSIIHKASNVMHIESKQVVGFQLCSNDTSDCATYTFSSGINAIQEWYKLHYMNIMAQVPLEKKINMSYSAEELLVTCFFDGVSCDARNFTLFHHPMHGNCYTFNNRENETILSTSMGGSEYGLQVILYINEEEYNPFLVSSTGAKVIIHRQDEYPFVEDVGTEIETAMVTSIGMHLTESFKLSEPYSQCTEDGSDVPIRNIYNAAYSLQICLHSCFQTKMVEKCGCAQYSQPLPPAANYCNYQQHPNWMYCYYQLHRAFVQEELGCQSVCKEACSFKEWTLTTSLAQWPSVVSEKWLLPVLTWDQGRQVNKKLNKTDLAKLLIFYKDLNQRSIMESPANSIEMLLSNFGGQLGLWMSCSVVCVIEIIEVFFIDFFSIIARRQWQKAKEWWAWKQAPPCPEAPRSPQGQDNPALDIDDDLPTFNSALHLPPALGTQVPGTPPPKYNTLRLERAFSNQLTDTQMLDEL
Description: Testing in Xenopus oocytes expressing ENaC (inward sodium current recording). In kind it is cell-based. To be noted: oocyte expressing delta. On the procedure:
The frog, Xenopus laevis, produces oocytes that are particularly obliging in permitting a foreign gene to be incorporated into its protein translation system. The egg then makes this foreign protein encoded by the injected complimentary RNA (cRNA). Oocytes are harvested when at stage 5 or 6, from female Xenopus and defolliculated (using trypsin) and placed in low sodium culture medium. After overnight culture the egg is injected with the cRNA of the protein(s) of interest.
There is evidence that one of the major “receptors” of salty taste is the ENaC. This channel functions as a heterotrimer, a complex of three different peptides. The transfected eggs are then cultured for 4 to 6 days. Depending upon the endpoint of the study, all three subunits are expressed into one cell or one subunit is expressed per cell. The internal machinery of the cell places the ENaC into the plasma membrane. These preparations can be used as follows: • 1. Two Electrode Voltage Clamp (TEVC) across the entire oocyte is the most direct method for detecting ion flux through the ENaC, but it will respond to any ion movement, making it less desirable for precise analyses, but very useful as an initial screen. • 2. Patch clamp is used to record movement of very few ions through very few channels. […]

With `CC(C)CCC(=O)NCCO` [N-(2-hydroxyethyl)-4-methylpentanamide], the “enhancement of saltiness of 50 mM NaCl” value in assay [1] (50 mM NaCl plus 20 ppm compound, geometric mean saltiness intensity ratings) is recorded as “more than 100%”. For the same compound, in assay [1] (75 mM NaCl plus 20 ppm compound, geometric mean saltiness intensity ratings), the “enhancement of saltiness of 75 mM NaCl” value is “approximately 35%”. The “saltiness of its own (saltiness intensity rating)” value in assay [1] (compound alone at 20 ppm, 121 subjects) is recorded as “almost no saltiness of its own”. Further, the average bitterness intensity in assay [1] (compound alone at 20 ppm, data not shown) is on record as 3. For the same compound, the “reversibility of inward current” value in assay [2] is “completely reversible”. Moreover, in assay [2] (successive addition of increasing (nanomolar) concentrations, from baseline state), the “effect on sodium currents (inward current) in oocytes” value is listed as “enhancement of sodium currents”.
